Measured values taken from EP0394553A2, “Use of fluorine containing pyridone carboxylic acid derivatives for preparing a medicament for the treatment of HIV infections” (DAIICHI PHARMACEUTICAL CO., LTD., priority 1989, dated 1990).

Columns and labels:
HIV (LAV 1) = assay: microbe, parasite or virus in culture; details: for Viable cell count / Viral antigen-positive cell percentage: 4-day addition
Description: (§1) Human T cell-derived, T4 antigen-positive CEM cells (provided by the Institut Pasteur, France) were used as host cells of HIV. Cell culture was carried out in a carbon dioxide-containing atmosphere in an incubator maintained at 37°C according to a conventional method [cf. […] The culture supernatant (5×10⁶ TCID₅₀/ml) obtained by subjecting CEM cells to HIV (LAV 1) infection and stored at -70°C was used as the HIV source.
The medium for cell culture (10 ml) placed in a plastic culture flask (25 cm²) was inoculated with CEM cells at a cell density of 2.5×10⁵ cells/ml. After 3 days of incubation, the culture was transferred to a 15-ml centrifuge tube and subjected to centrifugation at 1,000 revolutions per minute for 5 minutes for sedimentation of cells and removal of the culture medium.
The stock viral suspension was added to the host cells thus prepared to an MOI of 0.05 and the mixture was maintained at 37°C for 90 minutes with stirring at 30-minute intervals for viral adsorption. The medium was added to HIV-infected cells to a cell density of 5.0×10⁵ cells/ml to give an HIV-infected cell suspension.
A mixture (1.0 ml) of the three constituents mentioned below was added to each well of a 24-well plastic culture plate and the test substance final concentration was adjusted to 10 mcg/ml, 5 mcg/ml, 2.5 mcg/ml or 1 mcg/ml. The "no addition" wells (0 mcg/ml) served as controls.
After 4 days of incubation following viral infection, the cells in each well on the 24-well culture plate were suspended uniformly by pipetting and a 0.5-ml portion of the suspension was separated. A 2.0-ml portion of test substance-free fresh medium was added to the remaining 0.5-ml portion of the cell suspension, followed by incubation.
Seven days after viral infection, pipetting was performed to give a uniform cell suspension in each well and a 0.5-ml portion of the suspension was separated.
Incubation was continued and, 10 days after viral infection, a uniform cell suspension was produced in the same manner in each well and a 1.5-ml portion thereof was separated. A fresh 2.0-ml portion of the medium free of (or containing) the test substance was added to the well, followed by further incubation.
Fifteen days after viral infection, the cells in each well were suspended uniformly in the same manner in the medium and a 2.0-ml portion of the suspension was separated. A fresh 2.0-ml portion of the medium free of (or containing) the test substance was added to the remaining 0.5 ml of the cell suspension and incubation was continued.
Medium exchange was performed in the same manner 20 days and 25 days after viral infection.
The cell suspensions collected 4 days, 7 days, 10 days, 20 days and 30 days after viral infection were tested for viable cell count and viable cell percentage by trypan blue staining. At the same time, viral antigen-positive cell percentage determination was carried out by immunofluorescence using an anti-HIV antiserum isolated from a healthy carrier of HIV.
The numerical values given each is the mean for the respective two wells on the culture plate. The viable cell count is the total cell count minus the count of dead cells stained with trypan blue. The viable cell percentage is the percentage of viable cells among all the cells including dead cells. The viral antigen-positive cell percentage is the percentage of cells indicating antigen expression as found among all the cells including dead cells.

in vivo = details: mouse, po
CEM cells = assay: Cytotoxicity in uninfected CEM cells (trypan blue staining); details: at concentrations not exceeding 10 mcg/ml
Description: as §1
The cell culture medium (10 ml) placed in a plastic culture flask (25 cm²) was inoculated with CEM cells to a cell density of 2.5×10⁵ cells/ml and incubation was performed for 3 days. Then, the culture was transferred to a 15-ml plastic centrifuge tube and centrifuged at 1,000 revolutions per minute for 5 minutes for medium removal. A fresh portion of the medium was added to the cells, the cell density being adjusted to 5.0×10⁵ cells/ml. The following mixture (1.0 ml) containing the cell suspension prepared in the above manner was incubated in a 24-well plastic culture plate for 4 days:
The cells in each well were then suspended uniformly in the medium by pipetting and a 0.5-ml portion of the suspension was separated.
A fresh 2-ml portion of the test substance-free medium was added to the remaining cell suspension (0.5 ml) and, after a further 3-day incubation, a cell suspension was produced in the same manner and a 0.5-ml portion thereof was removed.
The cell suspensions collected in the above manner were subjected to viable cell count and viable cell percentage determinations by trypan blue staining.

[1] = Human immunodeficiency virus 1, CCRF-CEM, 96 h, read-out: Viable cell percentage

| SMILES | Viable cell count (HIV (LAV 1); 1 mcg/ml, after 4 days) | Viral antigen-positive cell percentage (HIV (LAV 1); 1 mcg/ml, after 4 days) | Viable cell count (HIV (LAV 1); 1 mcg/ml, after 7 days) | Viral antigen-positive cell percentage (HIV (LAV 1); 1 mcg/ml, after 7 days) | Viable cell count (HIV (LAV 1); 1 mcg/ml, after 10 days) | Viable cell count (HIV (LAV 1); 1 mcg/ml, after 20 days) | Viable cell count (HIV (LAV 1); 1 mcg/ml, after 30 days) | Viable cell count (HIV (LAV 1); 2.5 mcg/ml, after 4 days) | Viral antigen-positive cell percentage (HIV (LAV 1); 2.5 mcg/ml, after 4 days) | Viable cell count (HIV (LAV 1); 2.5 mcg/ml, after 7 days) | Viral antigen-positive cell percentage (HIV (LAV 1); 2.5 mcg/ml, after 7 days) | Viable cell count (HIV (LAV 1); 2.5 mcg/ml, after 10 days) | Viable cell count (HIV (LAV 1); 2.5 mcg/ml, after 20 days) | Viable cell count (HIV (LAV 1); 2.5 mcg/ml, after 30 days) | Viable cell count (HIV (LAV 1); 5 mcg/ml, after 4 days) | Viral antigen-positive cell percentage (HIV (LAV 1); 5 mcg/ml, after 4 days) | Viable cell count (HIV (LAV 1); 5 mcg/ml, after 7 days) | Viral antigen-positive cell percentage (HIV (LAV 1); 5 mcg/ml, after 7 days) | Viable cell count (HIV (LAV 1); 5 mcg/ml, after 10 days) | Viable cell count (HIV (LAV 1); 5 mcg/ml, after 20 days) | also measured |
| --- | --- | --- | --- | --- | --- | --- | --- | --- | --- | --- | --- | --- | --- | --- | --- | --- | --- | --- | --- | --- | --- |
| CCn1cc(C(=O)O)c(=O)c2cc(F)c(N3CCNCC3)nc21 [ENX, 1-ethyl-6-fluoro-1,4-dihydro-4-oxo-7-(1-piperazinyl)-1,8-naphthyridine-3-carboxylic acid sesqui-hydrate] | 220 × 10⁴ cells/ml | 88% | 64 × 10⁴ cells/ml | 70% | 29 × 10⁴ cells/ml | 7 × 10⁴ cells/ml | 0 × 10⁴ cells/ml | 240 × 10⁴ cells/ml | 90% | 67 × 10⁴ cells/ml | 65% | 30 × 10⁴ cells/ml | 1 × 10⁴ cells/ml | 2 × 10⁴ cells/ml | 210 × 10⁴ cells/ml | 93% | 58 × 10⁴ cells/ml | 68% | 78 × 10⁴ cells/ml | 11 × 10⁴ cells/ml | Viable cell count (HIV (LAV 1); 5 mcg/ml, after 30 days): 310 × 10⁴ cells/ml; Viral antigen-positive cell percentage (HIV (LAV 1); 5 mcg/ml, after 30 days): ≦1%; Viable cell count (HIV (LAV 1); 10 mcg/ml, after 4 days): 140 × 10⁴ cells/ml; Viral antigen-positive cell percentage (HIV (LAV 1); 10 mcg/ml, after 4 days): 88%; Viable cell count (HIV (LAV 1); 10 mcg/ml, after 7 days): 52 × 10⁴ cells/ml; Viral antigen-positive cell percentage (HIV (LAV 1); 10 mcg/ml, after 7 days): 68%; Viable cell count (HIV (LAV 1); 10 mcg/ml, after 10 days): 150 × 10⁴ cells/ml; Viral antigen-positive cell percentage (HIV (LAV 1); 10 mcg/ml, after 10 days): 30%; Viable cell count (HIV (LAV 1); 10 mcg/ml, after 20 days): 178 × 10⁴ cells/ml; Viral antigen-positive cell percentage (HIV (LAV 1); 10 mcg/ml, after 20 days): 5%; Viable cell count (HIV (LAV 1); 10 mcg/ml, after 30 days): 379 × 10⁴ cells/ml; Viral antigen-positive cell percentage (HIV (LAV 1); 10 mcg/ml, after 30 days): ≦1%; viability at 1 µg/mL (HIV (LAV 1); [1]): 95%; viability at 2.5 µg/mL (HIV (LAV 1); [1]): 95%; viability at 5 µg/mL (HIV (LAV 1); [1]): 98%; viability at 10 µg/mL (HIV (LAV 1); [1]): 97%; LD50 (in vivo): ≥ 4000 mg/kg; cytotoxicity (CEM cells): no cytotoxicity |
| Cl.O.O=C(O)c1cn(C2CC2)c2cc(N3CCNCC3)c(F)cc2c1=O [CPFX, 1-cyclopropyl-6-fluoro-1,4-dihydro-4-oxo-7-(1-piperazinyl)-3-quinoline carboxylic acid hydrochloride hydrate] | 220 × 10⁴ cells/ml | 83% | 86 × 10⁴ cells/ml | 62% | 52 × 10⁴ cells/ml | 8 × 10⁴ cells/ml | 33 × 10⁴ cells/ml | 200 × 10⁴ cells/ml | 87% | 98 × 10⁴ cells/ml | 60% | 320 × 10⁴ cells/ml | 220 × 10⁴ cells/ml | 360 × 10⁴ cells/ml | 220 × 10⁴ cells/ml | 92% | 76 × 10⁴ cells/ml | 67% | 310 × 10⁴ cells/ml | 280 × 10⁴ cells/ml | Viral antigen-positive cell percentage (HIV (LAV 1); 1 mcg/ml, after 10 days): 37%; Viral antigen-positive cell percentage (HIV (LAV 1); 1 mcg/ml, after 20 days): 33%; Viral antigen-positive cell percentage (HIV (LAV 1); 2.5 mcg/ml, after 10 days): 31%; Viral antigen-positive cell percentage (HIV (LAV 1); 2.5 mcg/ml, after 20 days): 3%; Viral antigen-positive cell percentage (HIV (LAV 1); 2.5 mcg/ml, after 30 days): ≦1%; Viral antigen-positive cell percentage (HIV (LAV 1); 5 mcg/ml, after 10 days): 29%; Viral antigen-positive cell percentage (HIV (LAV 1); 5 mcg/ml, after 20 days): 4%; Viable cell count (HIV (LAV 1); 5 mcg/ml, after 30 days): 320 × 10⁴ cells/ml; Viral antigen-positive cell percentage (HIV (LAV 1); 5 mcg/ml, after 30 days): ≦1%; Viable cell count (HIV (LAV 1); 10 mcg/ml, after 4 days): 180 × 10⁴ cells/ml; Viral antigen-positive cell percentage (HIV (LAV 1); 10 mcg/ml, after 4 days): 88%; Viable cell count (HIV (LAV 1); 10 mcg/ml, after 7 days): 65 × 10⁴ cells/ml; Viral antigen-positive cell percentage (HIV (LAV 1); 10 mcg/ml, after 7 days): 57%; Viable cell count (HIV (LAV 1); 10 mcg/ml, after 10 days): 250 × 10⁴ cells/ml; Viral antigen-positive cell percentage (HIV (LAV 1); 10 mcg/ml, after 10 days): 27%; Viable cell count (HIV (LAV 1); 10 mcg/ml, after 20 days): 300 × 10⁴ cells/ml; Viral antigen-positive cell percentage (HIV (LAV 1); 10 mcg/ml, after 20 days): 10%; Viable cell count (HIV (LAV 1); 10 mcg/ml, after 30 days): 330 × 10⁴ cells/ml; Viral antigen-positive cell percentage (HIV (LAV 1); 10 mcg/ml, after 30 days): ≦1%; cytotoxicity (CEM cells): no cytotoxicity |
